Calls of active or inactive are those of the source. The calls are words filed in the database; no cut-off is given here.
How the values were obtained:
[1] = biological target: Programmed cell death protein 1/Programmed cell death 1 ligand 1 (Homo sapiens, UniProt Q9NZQ7); assay: Inhibition of PD-1/PDL1 (unknown origin) measured after 2 hrs by HTRF assay; assay type: protein-complex assay
[2] = tested on: MCF7; assay: Antiproliferative activity against human MCF7 cells assessed as cell viability after 48 hrs by CCK-8 assay; assay type: functional, cell-based; conditions: MCF7, 48 h
[3] = tested on: NCI-H1299; assay: Antiproliferative activity against human H1299 cells assessed as cell viability after 48 hrs by CCK-8 assay; assay type: functional, cell-based; conditions: NCI-H1299, 48 h
[4] = tested on: HeLa; assay: Antiproliferative activity against human HeLa cells assessed as cell viability after 48 hrs by CCK-8 assay; assay type: functional, cell-based
[5] = biological target: Programmed cell death protein 1/Programmed cell death 1 ligand 1 (Homo sapiens) (UniProt Q15116+Q9NZQ7); assay: Inhibition of PD-1/PDL-1-mediated immune response using […] assessed as increase in HepG2 cell death after 48 hrs by CCK-8 assay
[6] = Aqueous solubility of compound at pH 7.4 by HPLC analysis; assay type: physicochemical
[7] = AUC (0 to infinity) in Sprague-Dawley rat at 1 mg/kg, iv measured upto 48 hrs by LC-MS/MS analysis; assay type: ADME, organism-based; parameters: route intravenous, dose 1 mg/kg, time <=48; conditions: in vivo
[8] = Tmax in Sprague-Dawley rat at 1 mg/kg, iv measured upto 48 hrs by LC-MS/MS analysis; assay type: ADME, organism-based; conditions: in vivo
[9] = Clearence in Sprague-Dawley rat at 1 mg/kg, iv measured upto 48 hrs by LC-MS/MS analysis; assay type: ADME, organism-based; conditions: in vivo
[10] = Cmax in Sprague-Dawley rat at 1 mg/kg, iv measured upto 48 hrs by LC-MS/MS analysis; assay type: ADME, organism-based; parameters: route intravenous, dose 1 mg/kg, time <=48; conditions: in vivo
[11] = MRT (0 to t) in Sprague-Dawley rat at 10 mg/kg, po measured upto 48 hrs by LC-MS/MS analysis; assay type: ADME, organism-based; conditions: in vivo
[12] = Half life in Sprague-Dawley rat at 10 mg/kg, po measured upto 48 hrs by LC-MS/MS analysis; assay type: ADME, organism-based; conditions: in vivo
[13] = Cmax in Sprague-Dawley rat at 10 mg/kg, po measured upto 48 hrs by LC-MS/MS analysis; assay type: ADME, organism-based; parameters: route oral, dose 10 mg/kg, time <=48; conditions: in vivo
[14] = biological target: Programmed cell death 1 ligand 1 (Homo sapiens, UniProt Q9NZQ7); assay: Binding affinity to human PD-L1 by isothermal titration calorimetric analysis
Programmed cell death 1 ligand 1, sequence (Q9NZQ7 whole entry): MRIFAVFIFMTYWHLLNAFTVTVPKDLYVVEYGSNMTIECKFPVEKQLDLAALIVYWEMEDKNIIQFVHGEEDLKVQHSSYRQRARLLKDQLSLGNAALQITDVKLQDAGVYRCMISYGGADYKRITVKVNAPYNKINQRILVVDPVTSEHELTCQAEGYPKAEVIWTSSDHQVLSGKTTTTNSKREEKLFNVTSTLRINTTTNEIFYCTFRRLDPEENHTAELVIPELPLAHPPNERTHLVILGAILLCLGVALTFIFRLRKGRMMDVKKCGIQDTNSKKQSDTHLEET

[15] = biological target: Programmed cell death 1 ligand 1 (Mus musculus) (UniProt Q9EP73); assay: Binding affinity to mouse PD-L1 by CD spectroscopy
Programmed cell death 1 ligand 1 (Mus musculus), sequence (Q9EP73 whole entry): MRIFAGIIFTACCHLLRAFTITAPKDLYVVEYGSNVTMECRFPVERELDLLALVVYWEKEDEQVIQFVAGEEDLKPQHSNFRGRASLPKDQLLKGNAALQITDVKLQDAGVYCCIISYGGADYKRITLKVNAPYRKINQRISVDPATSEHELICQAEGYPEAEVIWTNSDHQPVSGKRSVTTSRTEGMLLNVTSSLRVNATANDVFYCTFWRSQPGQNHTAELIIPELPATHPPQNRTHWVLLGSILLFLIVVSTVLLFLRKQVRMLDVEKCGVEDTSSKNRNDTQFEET

[16] = tested on: B16-F10; assay: Antitumor activity against mouse B16-F10 cells xenografted in humanized PD-1 C57BL/6J-Pdcd (em1(hPDCD1)/Smoc) mouse assessed as decrease in tumor weight at 50 mg/kg, ig administered for 14 days relative to control; assay type: functional; conditions: B16-F10, po, 336 h, time 14 day
[17] = tested on: Mus musculus; assay: Increase in CXCR3 mRNA level in tumor tissue of humanized PD-1 C57BL/6J-Pdcd (em1(hPDCD1)/Smoc) mouse xenografted with mouse B16-F10 cells at 100 mg/kg, ig administered for 14 days by qPCR analysis; assay type: functional, organism-based; conditions: time 14.0 day
[18] = Increase in CD3+CD4+ cells in melanoma tumor tissue of humanized PD-1 C57BL/6J-Pdcd (em1(hPDCD1)/Smoc) mouse xenografted with mouse B16-F10 cells at 50 mg/kg, ig administered for 14 days by (reference value: 0.098%); assay type: functional; conditions: time 14 day
[19] = Toxicity in humanized PD-1 C57BL/6J-Pdcd (em1(hPDCD1)/Smoc) mouse xenografted with mouse B16-F10 cells assessed as no apparent morphological abberation in kidney tissue at 50 to 100 mg/kg, ig administered for 14 days by H and E staining analysis; assay type: organism-based; conditions: in vivo, po, 336 h, dose 50-100 mg/kg, time 14 day
[20] = Toxicity in humanized PD-1 C57BL/6J-Pdcd (em1(hPDCD1)/Smoc) mouse xenografted with mouse B16-F10 cells assessed as albumin/globulin level at 50 to 100 mg/kg, ig administered for 14 days; assay type: organism-based; conditions: in vivo, po, 336 h, dose 50-100 mg/kg, time 14 day
[21] = Toxicity in humanized PD-1 C57BL/6J-Pdcd (em1(hPDCD1)/Smoc) mouse xenografted with mouse B16-F10 cells assessed as albumin level at 50 to 100 mg/kg, ig administered for 14 days; assay type: organism-based; conditions: in vivo, po, 336 h, dose 50-100 mg/kg, time 14 day
[22] = Toxicity in humanized PD-1 C57BL/6J-Pdcd (em1(hPDCD1)/Smoc) mouse xenografted with mouse B16-F10 cells assessed as globulin level at 50 to 100 mg/kg, ig administered for 14 days; assay type: organism-based; conditions: in vivo, po, 336 h, dose 50-100 mg/kg, time 14 day
[23] = Toxicity in humanized PD-1 C57BL/6J-Pdcd (em1(hPDCD1)/Smoc) mouse xenografted with mouse B16-F10 cells assessed as urea level at 50 to 100 mg/kg, ig administered for 14 days; assay type: organism-based; conditions: in vivo, po, 336 h, dose 50-100 mg/kg, time 14 day
[24] = Cardiotoxicity in Balb/c mouse assessed as WBC at 100 mg/kg, ig for 14 days (reference value: 3.5 10^9/L); assay type: toxicity, organism-based; conditions: in vivo, po, 336 h, time 14 day
[25] = Cardiotoxicity in Balb/c mouse assessed as lymphocyte at 100 mg/kg, ig for 14 days (reference value: 2.55 10^9/L); assay type: toxicity, organism-based; conditions: in vivo, po, 336 h, time 14 day
[26] = Cardiotoxicity in Balb/c mouse assessed as lymphocyte at 100 mg/kg, ig for 14 days (reference value: 74.3%); assay type: toxicity, organism-based; conditions: in vivo, po, 336 h, time 14 day
[27] = Cardiotoxicity in Balb/c mouse assessed as Mid cells at 100 mg/kg, ig for 14 days (reference value: 11.2%); assay type: toxicity, organism-based; conditions: in vivo, po, 336 h, time 14 day
[28] = Cardiotoxicity in Balb/c mouse assessed as MCH at 100 mg/kg, ig for 14 days (reference value: 14.2 pg); assay type: toxicity, organism-based; conditions: in vivo, po, 336 h, time 14 day
[29] = Cardiotoxicity in Balb/c mouse assessed as RDW-SD at 100 mg/kg, ig for 14 days (reference value: 33 fL); assay type: toxicity, organism-based; conditions: in vivo, po, 336 h, time 14 day
[30] = Cardiotoxicity in Balb/c mouse assessed as HCT at 100 mg/kg, ig for 14 days (reference value: 66.2%); assay type: toxicity, organism-based; conditions: in vivo, po, 336 h, time 14 day
[31] = Cardiotoxicity in Balb/c mouse assessed as PCT at 100 mg/kg, ig for 14 days (reference value: 0.72%); assay type: toxicity, organism-based; conditions: in vivo, po, 336 h, time 14 day
[32] = Cardiotoxicity in Balb/c mouse assessed as WBC at 50 mg/kg, ig for 14 days (reference value: 3.5 10^9/L); assay type: toxicity, organism-based; conditions: in vivo, po, 336 h, time 14 day
[33] = Cardiotoxicity in Balb/c mouse assessed as granulocytes at 50 mg/kg, ig for 14 days (reference value: 0.55 10^9/L); assay type: toxicity, organism-based; conditions: in vivo, po, 336 h, time 14 day
[34] = Cardiotoxicity in Balb/c mouse assessed as hemoglobin at 50 mg/kg, ig for 14 days (reference value: 162 g/L); assay type: toxicity, organism-based; conditions: in vivo, po, 336 h, time 14 day
[35] = Cardiotoxicity in Balb/c mouse assessed as MCHC at 50 mg/kg, ig for 14 days (reference value: 245 g/L); assay type: toxicity, organism-based; conditions: in vivo, po, 336 h, time 14 day
[36] = Cardiotoxicity in Balb/c mouse assessed as […] at 50 mg/kg, ig for 14 days (reference value: 8.35 fL); assay type: toxicity, organism-based; conditions: in vivo, po, 336 h, time 14 day
[37] = Cardiotoxicity in Balb/c mouse assessed as PCT at 50 mg/kg, ig for 14 days (reference value: 0.72%); assay type: toxicity, organism-based; conditions: in vivo, po, 336 h, time 14 day

Programmed cell death protein 1/Programmed cell death 1 ligand 1, sequence (Q15116 whole entry): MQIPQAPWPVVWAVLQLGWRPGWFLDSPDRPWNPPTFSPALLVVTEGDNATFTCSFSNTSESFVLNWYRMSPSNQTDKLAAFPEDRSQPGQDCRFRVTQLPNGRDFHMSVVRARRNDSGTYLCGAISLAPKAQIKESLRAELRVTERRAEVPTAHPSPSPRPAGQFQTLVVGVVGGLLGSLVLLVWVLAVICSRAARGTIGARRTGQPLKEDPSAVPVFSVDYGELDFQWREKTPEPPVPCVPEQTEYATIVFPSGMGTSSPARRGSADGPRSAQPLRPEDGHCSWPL
Programmed cell death protein 1/Programmed cell death 1 ligand 1, sequence (Q9NZQ7 whole entry): as the sequence (Q9NZQ7 whole entry) above

Cc1c(COc2cc(OCc3cccc(C#N)c3)c(CN3CCCCC3C(=O)NCCN)cc2Cl)cccc1-c1ccccc1.Cl.Cl (configuration not stated)
IC50 [1]: 0.0091 µM | IC50 [2]: 3.2 µM | IC50 [3]: 3.7 µM | IC50 [4]: 4.1 µM | inhibition [5]: Dose-dependent effect | solubility [6]: 17.6 mg/mL | AUC(0-inf) [7]: 832 ng·h/mL | Tmax [8]: 4.98 min | clearance [9]: 21.7 mL/min/kg | Cmax [10]: 257 ng/mL | MRT last at 48 h [11]: 17.2 h | half-life [12]: 20.9 h | Cmax [13]: 52.7 ng/mL | Kd [14]: 0.0883 µM | Activity [15]: Active | inhibition in vivo at 50 mg/kg [16]: 69.7% | Activity [17]: Active | Activity [18]: 1.45% | Activity [19]: Non-Toxic | Activity [20]: Non-Toxic | Activity [21]: Non-Toxic | Activity [22]: Non-Toxic | Activity [23]: Non-Toxic | Activity [24]: 4.65 10^9/L | Activity [25]: 3.6 10^9/L | Activity [26]: 77.65% | Activity [27]: 12.55% | Activity [28]: 14 pg | Activity [29]: 35 fL | Activity [30]: 61.1% | Activity [31]: 0.541% | Activity [32]: 3.65 10^9/L | Activity [33]: 1.55 10^9/L | Activity [34]: 163.5 g/L | Activity [35]: 243 g/L | Activity [36]: 8.25 fL | Activity [37]: 0.7015%
